Data as given in ChEMBL document CHEMBL5390290, “Discovery of Anti-SARS-CoV-2 Nsp9 Binders from Natural Products by a Native Mass Spectrometry Approach” (J Nat Prod, 2023).
The source made the active and inactive calls. The calls are words filed in the database; no cut-off is given here.

Legend:
[1] = target: Replicase polyprotein 1ab (Severe acute respiratory syndrome coronavirus 2) (UniProt P0DTD1); assay: Binding affinity to recombinant SARS-CoV-2 Nsp9 at 50 uM by Mass spectrometry analysis
[2] = target: Replicase polyprotein 1ab (Severe acute respiratory syndrome coronavirus 2) (UniProt P0DTD1); assay: Binding affinity to recombinant SARS-CoV-2 Nsp9 at 10 uM by Mass spectrometry analysis relative to control
[3] = target: Replicase polyprotein 1ab (Severe acute respiratory syndrome coronavirus 2) (UniProt P0DTD1); assay: Binding affinity to recombinant SARS-CoV-2 Nsp9 at 50 uM by Mass spectrometry analysis relative to control
[4] = target: Replicase polyprotein 1ab (Severe acute respiratory syndrome coronavirus 2) (UniProt P0DTD1); assay: Binding affinity to SARS-CoV-2 Nsp9 at 25 uM by LC-MS/MS analysis relative to control
[5] = target: Replicase polyprotein 1ab (Severe acute respiratory syndrome coronavirus 2) (UniProt P0DTD1); assay: Binding affinity to recombinant SARS-CoV-2 Nsp9 at 10 to 50 uM by Mass spectrometry analysis; details: dose 10-50 µM
[6] = target: Replicase polyprotein 1ab (Severe acute respiratory syndrome coronavirus 2, UniProt P0DTD1); assay: Binding affinity to recombinant SARS-CoV-2 Nsp9 assessed as dissociation constant by Mass spectrometry analysis

Compound | Activity [2] [%] | Activity [3] [%] | Activity [5] | also measured
C=C1C[C@]23C[C@@]1(O)CC[C@H]2[C@@]12C=C[C@H](O)[C@](C)(C(=O)O1)[C@H]2[C@@H]3C(=O)O | – | – | – | Activity [1]: Active
C=C1C(=O)[C@]23[C@@H](O)[C@H]1CC[C@H]2[C@@]12COC3(O)C[C@@H]1C(C)(C)CC[C@@H]2O | 0 | 0.04 | – | –
C=C1C(=O)[C@]23[C@H](O)[C@@H]1CC[C@H]2[C@@]12CO[C@@]3(O)[C@@H](O)[C@@H]1C(C)(C)CC[C@@H]2O | 0.71 | 1 | – | Activity [4]: Active
C=C1C(=O)[C@]23[C@H](O)[C@@H]1[C@@H](O)C[C@H]2[C@]12CCCC(C)(C)[C@H]1[C@H](O)[C@@]3(O)OC2 | 0 | 0 | inactive | –
C=C1[C@H]2CC[C@H]3[C@@]45CO[C@](O)([C@@H](O)[C@@H]4C(C)(C)CC[C@@H]5O)[C@@]3([C@@H]1O)[C@@H]2O | 2 | 16 | – | –
C=C1C(=O)[C@]23[C@H](O)[C@@H]1CC[C@H]2[C@@]12C(O)[C@@]3(O)C(=O)[C@@H]1C(C)(C)CC[C@@H]2O (stereo partly drawn) | 0.05 | 0.38 | – | –
C=C1C[C@]23C4C5N(C)C[C@]6(C)C[C@H](O)C[C@@]5([C@@H]2[C@H](OC(=O)/C(C)=C/CO)[C@H](OC(=O)/C(C)=C/C)[C@H]14)[C@]6(O)[C@@H](O)[C@@H]3O (stereo partly drawn) | – | – | inactive | –
CC(C)[C@]1(O)C(OC(=O)c2ccc[nH]2)[C@@]2(O)[C@@]3(C)C[C@]4(O)O[C@@]5([C@H](O)[C@@H](C)CC[C@]35O)[C@@]2(O)[C@@]14C (stereo partly drawn) | – | – | – | Activity [4]: Active; Kd [6]: 48 µM
C=C1C[C@]23C4C5N(C)C[C@]6(C)C[C@H](O)C[C@@]5([C@@H]2[C@H](OC(=O)c2ccc(O)cc2)[C@H](OC(=O)/C(C)=C/C)[C@H]14)[C@]6(O)[C@@H](O)[C@@H]3O (stereo partly drawn) | – | – | inactive | –
C=C1C(=O)[C@@]23[C@H]4O[C@H]5O[C@]2(O)[C@@H](O)[C@@H]2C(C)(C)CC[C@H](O)[C@]52[C@@H]3CC[C@H]14 | 0.27 | 1 | – | –
C=C1[C@@H]2C[C@@]3([C@@H]1O)[C@@H](CC2=O)[C@@]12[C@@H]4[C@@H]3C[C@@H]1[C@@](C)(CC[C@@H]2O)CN4CC | – | – | inactive | –
C=C1C[C@]23C4C5N(C)C[C@]6(C)C[C@H](O)C[C@@]5([C@@H]2[C@H](OC(=O)/C(C)=C/C)[C@H](OC(=O)/C(C)=C/C)[C@H]14)[C@]6(O)[C@@H](O)[C@@H]3O (stereo partly drawn) | – | – | inactive | –
C=C1C(=O)[C@]23[C@H](O)[C@@H]1C[C@@H](O)[C@H]2[C@]12CCCC(C)(C)[C@H]1[C@H](O)[C@@]3(O)OC2 | 0.15 | 0.89 | – | –
